Experimental data published in patent US20230174523A1, “BENZENESULFONAMIDE DERIVATIVES AS TRAP1 MODULATORS AND USES THEREOF” (Amathus Therapeutics, Inc., priority 2020, published 2023).

Target: T1, TRAP1 enzyme (Homo sapiens, UniProt Q12931)
T1 sequence (Q12931 60-704): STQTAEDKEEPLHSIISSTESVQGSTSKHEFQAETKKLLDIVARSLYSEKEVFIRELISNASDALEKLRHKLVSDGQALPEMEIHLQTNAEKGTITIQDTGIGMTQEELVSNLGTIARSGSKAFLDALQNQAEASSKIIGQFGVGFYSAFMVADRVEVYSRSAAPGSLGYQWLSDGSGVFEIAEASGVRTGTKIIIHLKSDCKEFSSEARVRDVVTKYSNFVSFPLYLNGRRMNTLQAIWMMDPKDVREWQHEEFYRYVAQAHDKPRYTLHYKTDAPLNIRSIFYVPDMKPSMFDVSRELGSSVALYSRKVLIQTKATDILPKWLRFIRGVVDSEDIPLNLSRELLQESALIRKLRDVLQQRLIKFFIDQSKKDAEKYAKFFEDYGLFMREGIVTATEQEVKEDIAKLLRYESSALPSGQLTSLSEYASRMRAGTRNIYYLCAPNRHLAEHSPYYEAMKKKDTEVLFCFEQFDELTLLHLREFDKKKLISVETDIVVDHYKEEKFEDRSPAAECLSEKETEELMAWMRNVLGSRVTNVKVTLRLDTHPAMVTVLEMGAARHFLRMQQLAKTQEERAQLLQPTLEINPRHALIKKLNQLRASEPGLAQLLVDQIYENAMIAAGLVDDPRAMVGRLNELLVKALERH
Experiment: ADP Glo assay of TRAP1 ATPase activity
Type: biochemical
Details: for EC50: TRAP1 ATPase activation, 150 nM Trap1, 20 μM ATP, geometric mean, read-out: ADP GLO DRC: GeoMean EC50; for Emax: read-out: ADP GLO DRC: Mean Emax
Method: Potency of test compounds to modulate the ATPase activity of TRAP1 enzyme was evaluated using ADP Glo assay. The assay is based on quantification of the ADP generated from ATP in the ATPase reaction. The assay is performed in two steps: first, after the ATPase reaction, an equal volume of ADP-Glo™ Reagent is added to terminate the ATPase reaction and deplete the remaining ATP. Second, the Kinase Detection Reagent is added to simultaneously convert ADP to ATP and allow the newly synthesized ATP to be measured using a luciferase/luciferin reaction.
All the assays were carried out in a 384-well Proxiplate. The buffer used was 25 mM Pipes pH-7.5, 40 mM KCl, 0.05 mM MgCl2, 0.025% BSA, 0.316 mM EGTA, 0.003% Empigen, 0.01% Igepal. 150 nM Trap1 enzyme was incubated with various concentrations of the test compound (0.79 μM-100 μM) at 37° C. for 30 mins (except in blank wells). 20 μM ATP was added to each well to start the reaction. The plate was spun for 1 min at 1200 rpm and then incubated at 37° C. for 60 mins. 5 μl of ADP Glo reagent was added to all the wells and spun the plate for 1 min at 1200 rpm and kept it on a shaker at ambient temperature for 60 mins. 10 μl of kinase detection mix was added to all the wells and the plate was read for Luminescence at 495 nm. The amount of ADP released was estimated from ATP/ADP standard curve generated at the same experimental conditions. Emax (Maximal percent activation) and EC50 (concentration for half maximal activation) were estimated by fitting the dose response data to a sigmoidal curve fitting equation using Graphpad Prism software V. 8.

SMILES | EC50 [µM] | Emax [%]
CCCn1cc(C(=O)Nc2ccc(F)c(S(=O)(=O)Nc3ccc(Cl)cc3)c2)cn1 [Compound 683] | 20 to 100 | 200 to 300
Cn1ncc(I)c1C(=O)Nc1ccc(F)c(S(=O)(=O)Nc2ccc(Cl)cc2)c1 [Compound 689] | 20 to 100 | 160 to 199
Cc1cc(Cl)nc(Cl)c1C(=O)Nc1ccc(F)c(S(=O)(=O)Nc2ccc(Cl)cc2)c1 [Compound 691] | 20 to 100 | 123 to 159
CC(C)(C)OC(=O)c1ccccc1C(=O)Nc1ccc(F)c(S(=O)(=O)Nc2ccc(Cl)cc2)c1 [Compound 694] | 20 to 100 | 123 to 159
Cc1nc(C(=O)Nc2ccc(F)c(S(=O)(=O)Nc3ccc(Cl)cc3)c2)c(C)s1 [Compound 716] | 20 to 100 | 123 to 159
Cc1cc(C(=O)Nc2ccc(F)c(S(=O)(=O)Nc3ccc(Cl)cc3)c2)c2c(C)noc2n1 [Compound 736] | 20 to 100 | 200 to 300
O=C(Nc1ccc(F)c(S(=O)(=O)Nc2ccc(Cl)cc2)c1)c1csc(N2CCOCC2)n1 [Compound 745] | 20 to 100 | 123 to 159
Cc1ccc(Sc2ncccc2C(=O)Nc2ccc(F)c(S(=O)(=O)Nc3ccc(Cl)cc3)c2)cc1 [Compound 764] | 10 to 20 | 123 to 159
CCOc1ccsc1C(=O)Nc1ccc(F)c(S(=O)(=O)Nc2ccc(Cl)cc2)c1 [Compound 765] | 20 to 100 | 123 to 159
O=C(Nc1ccc(F)c(S(=O)(=O)Nc2ccc(Cl)cc2)c1)c1cnccc1-c1ccccc1 [Compound 770] | 20 to 100 | 160 to 199
O=C(Nc1ccc(F)c(S(=O)(=O)Nc2ccc(Cl)cc2)c1)c1cccc2cnccc12 [Compound 773] | 10 to 20 | 123 to 159
COc1cc(C(=O)Nc2ccc(F)c(S(=O)(=O)Nc3ccc(Cl)cc3)c2)cc(Cl)c1OC [Compound 775] | 10 to 20 | 123 to 159
Cc1cc(C(=O)Nc2ccc(F)c(S(=O)(=O)Nc3ccc(Cl)cc3)c2)n(Cc2ccc(F)cc2)n1 [Compound 776] | 10 to 20 | 123 to 159
O=C(Nc1ccc(F)c(S(=O)(=O)Nc2ccc(Cl)cc2)c1)c1cnccc1C(F)(F)F [Compound 784] | 20 to 100 | 123 to 159
Cc1ncc(Br)cc1C(=O)Nc1ccc(F)c(S(=O)(=O)Nc2ccc(Cl)cc2)c1 [Compound 795] | 10 to 20 | 160 to 199
O=C(Nc1ccc(F)c(S(=O)(=O)Nc2ccc(Cl)cc2)c1)c1cnc(Cl)cc1Cl [Compound 815] | 10 to 20 | 123 to 159
Cn1ncc(C(=O)Nc2ccc(F)c(S(=O)(=O)Nc3ccc(Cl)cc3)c2)c1-n1cccc1 [Compound 817] | 20 to 100 | 160 to 199
CCS(=O)(=O)c1ccc(OC)c(C(=O)Nc2ccc(F)c(S(=O)(=O)Nc3ccc(Cl)cc3)c2)c1 [Compound 822] | 10 to 20 | 160 to 199
Cc1c(Br)cncc1C(=O)Nc1ccc(F)c(S(=O)(=O)Nc2ccc(Cl)cc2)c1 [Compound 826] | 20 to 100 | 200 to 300
N#Cc1ccc(C(=O)Nc2ccc(F)c(S(=O)(=O)Nc3ccc(Cl)cc3)c2)c(C(F)(F)F)n1 [Compound 827] | 20 to 100 | 123 to 159
CCc1noc(CC)c1C(=O)Nc1ccc(F)c(S(=O)(=O)Nc2ccc(Cl)cc2)c1 [Compound 830] | 20 to 100 | 160 to 199
Cc1nc(C(=O)Nc2ccc(F)c(S(=O)(=O)Nc3ccc(Cl)cc3)c2)nn1-c1ccc(F)cc1 [Compound 835] | 10 to 20 | 123 to 159
O=C(c1ccccc1)c1cccnc1C(=O)Nc1ccc(F)c(S(=O)(=O)Nc2ccc(Cl)cc2)c1 [Compound 836] | 20 to 100 | 200 to 300
COc1ccc(-c2noc(C)c2C(=O)Nc2ccc(F)c(S(=O)(=O)Nc3ccc(Cl)cc3)c2)cc1 [Compound 838] | 10 to 20 | 123 to 159
COc1ccc(NC(=O)c2ccc3c(c2)CCN3C)cc1S(=O)(=O)Nc1c(C)cccc1C [Compound 1008] | 20 to 100 | 123 to 159
COc1ccc(NC(=O)c2cc(C)n(C)c2)cc1S(=O)(=O)Nc1c(C)cccc1C [Compound 1009] | 20 to 100 | 160 to 199

More lines, now with the values ahead:

EC50 [µM] | Emax [%] | SMILES
< 10 | 200 to 300 | COc1ccc(NC(=O)c2cnc(-c3ccccc3)[nH]2)cc1S(=O)(=O)Nc1c(C)cccc1C [Compound 408]
10 to 20 | 123 to 159 | O=C(Nc1cccc(S(=O)(=O)Nc2ccc(Cl)cc2)c1)c1ncc(-c2ccccc2)o1 [Compound 438]
< 10 | 160 to 199 | COc1ccc(NC(=O)c2cnc(-c3ccccc3)[nH]2)cc1S(=O)(=O)Nc1c(C)cc(Cl)cc1C [Compound 443]
< 10 | 160 to 199 | COc1ccc(NC(=O)c2cnc(-c3ccccc3)[nH]2)cc1S(=O)(=O)N(CCCCCCN)c1ccc(Br)cc1 [Compound 454, N-(3-(N-(6-aminohexyl)-N-(4-bromophenyl)sulfamoyl)-4-methoxyphenyl)-2-phenyl-1H-imidazole-5-carboxamide]
< 10 | 160 to 199 | COc1ccc(NC(=O)c2cnc(-c3ccccc3)s2)cc1S(=O)(=O)Nc1c(C)cccc1C [Compound 467]
< 10 | 160 to 199 | COc1ccc(NC(=O)c2cnc(-c3ccccc3)s2)cc1S(=O)(=O)Nc1ccc(Cl)cc1 [Compound 468]
10 to 20 | 160 to 199 | COc1ccc(NC(=O)c2nnc(-c3ccccc3)[nH]2)cc1S(=O)(=O)Nc1ccc(Cl)cc1 [Compound 586, N-(3-(N-(4-chlorophenyl)sulfamoyl)-4-methoxyphenyl)-5-phenyl-4H-1,2,4-triazole-3-carboxamide]
10 to 20 | 160 to 199 | COc1ccc(NC(=O)c2ocnc2C(C)C)cc1S(=O)(=O)Nc1ccc(Cl)cc1 [Compound 596]
< 10 | 160 to 199 | O=C(Nc1ccc(F)c(S(=O)(=O)Nc2ccc(Cl)cc2)c1)c1ccccc1C(=O)c1ccccc1 [Compound 681]
< 10 | 160 to 199 | O=C(Nc1ccc(F)c(S(=O)(=O)Nc2ccc(Cl)cc2)c1)c1cccc(-c2cncnc2)c1 [Compound 690]
10 to 20 | 200 to 300 | CCOc1ncccc1C(=O)Nc1ccc(F)c(S(=O)(=O)Nc2ccc(Cl)cc2)c1 [Compound 704]
10 to 20 | 123 to 159 | O=C(Nc1ccc(F)c(S(=O)(=O)Nc2ccc(Cl)cc2)c1)c1nccnc1C(F)(F)F [Compound 710]
10 to 20 | 160 to 199 | O=C(Nc1ccc(F)c(S(=O)(=O)Nc2ccc(Cl)cc2)c1)c1scnc1C1CC1 [Compound 724]
10 to 20 | 123 to 159 | Cc1onc(-c2ccccc2Cl)c1C(=O)Nc1ccc(F)c(S(=O)(=O)Nc2ccc(Cl)cc2)c1 [Compound 728]
10 to 20 | 123 to 159 | Cc1nccc(C(F)(F)F)c1C(=O)Nc1ccc(F)c(S(=O)(=O)Nc2ccc(Cl)cc2)c1 [Compound 734]
< 10 | 123 to 159 | Cc1nc2cc(C(=O)Nc3ccc(F)c(S(=O)(=O)Nc4ccc(Cl)cc4)c3)ccc2n1-c1ccccc1 [Compound 735]
10 to 20 | 123 to 159 | O=C(Nc1ccc(F)c(S(=O)(=O)Nc2ccc(Cl)cc2)c1)c1cccc2c1OC(F)(F)O2 [Compound 737]
10 to 20 | 123 to 159 | Cc1oc(C)c(C(=O)Nc2ccc(F)c(S(=O)(=O)Nc3ccc(Cl)cc3)c2)c1C [Compound 740]
10 to 20 | 160 to 199 | Cc1noc(C(C)C)c1C(=O)Nc1ccc(F)c(S(=O)(=O)Nc2ccc(Cl)cc2)c1 [Compound 751]
< 10 | 160 to 199 | Cc1cc(C)n(Cc2cccc(C(=O)Nc3ccc(F)c(S(=O)(=O)Nc4ccc(Cl)cc4)c3)c2)n1 [Compound 807]
< 10 | 160 to 199 | COc1ccc(NC(=O)c2ccc(N3CCCC3)c(F)c2)cc1S(=O)(=O)Nc1c(C)cccc1C [Compound 1004]
< 10 | 200 to 300 | COc1ccc(NC(=O)c2csc(C)c2C)cc1S(=O)(=O)Nc1c(C)cccc1C [Compound 1005]
